From article doi:10.1101/2021.06.15.448612v1 (biorxiv, 2021)

Biological target: MsbA (Escherichia coli, UniProt P60752)
Experiment: isothermal titration calorimetry
Format: binding

Sequence of MsbA (P60752 2-582): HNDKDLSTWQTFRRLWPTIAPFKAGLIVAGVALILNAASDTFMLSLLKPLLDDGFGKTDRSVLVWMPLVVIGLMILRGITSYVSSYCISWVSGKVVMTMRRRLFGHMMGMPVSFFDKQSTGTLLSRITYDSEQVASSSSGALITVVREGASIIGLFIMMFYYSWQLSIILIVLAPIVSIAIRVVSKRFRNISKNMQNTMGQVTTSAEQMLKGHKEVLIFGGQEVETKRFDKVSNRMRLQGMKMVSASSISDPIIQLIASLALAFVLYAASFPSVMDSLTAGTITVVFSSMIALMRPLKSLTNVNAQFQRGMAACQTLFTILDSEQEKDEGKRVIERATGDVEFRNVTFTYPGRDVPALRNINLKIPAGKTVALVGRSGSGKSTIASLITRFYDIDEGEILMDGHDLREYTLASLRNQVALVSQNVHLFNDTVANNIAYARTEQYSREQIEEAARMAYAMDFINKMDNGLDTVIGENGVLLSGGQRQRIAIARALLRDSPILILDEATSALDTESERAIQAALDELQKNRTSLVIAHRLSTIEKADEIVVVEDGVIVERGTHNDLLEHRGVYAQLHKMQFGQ

A Kd of 5.1 µM was found for `Nc1ncnc2c1ncn2[C@@H]1O[C@H](COP(=O)(O)OP(=O)(O)NP(=O)(O)O)[C@@H](O)[C@H]1O` [AMP-PNP] in this work.
